Measured values published in patent publication US20060159676A1, “Methods for modulating angiogenesis, lymphangiogenesis, and apoptosis with apelin compositions” (priority 2005, published 2006).

Experiments:
[1] = tested on: VEGF mRNA expression; details: apelin-soaked bead, frog embryo
Description: Beads were microsurgically implanted in an avascular region, the posterior lateral mesoderm, of stage 24-26 embryos. Embryos were cultured in 0.2× MMR until stage 35-37, at which time they were prepared for whole mount in situ hybridization analysis as described in Example 2. The embryonic vascular system was visualized using an antisense probe directed against transcripts encoding the Xenopus vascular marker, erg (Baltzinger et al., 1999, Dev. Dyn. 216:420-33).

[2] = tested on: CAM blood vessels; experiment: Chick chorioallantoic membrane (CAM) assay; format: in vivo, chicken; details: 50 ng on filter disc, three days, vs PBS
Description: Chicken eggs were incubated at 37° C. in a humidified chamber. On day 10 of development, a small window was made in the outer shell of the egg, and the CAM was released from its attachment to the inner shell membrane. A larger window was then made in the egg to allow for addition of the filter paper containing growth factor. Filter discs (3 MM Whatman) of 7-8 mm diameter were pretreated with 10 μl of 0.1% cortisone acetate (Sigma) solution to avoid inflammation of the CAM. The filter discs were air dried prior to application of growth factors. […] After air-drying, the filter discs were placed on the CAM, and eggs were returned to the incubator for three days. Filter discs and the attached CAM were then excised, washed with PBS, trimmed to the size of the disc, and photographed for quantitative analysis (FIGS. 7A and 7B). The number of vessel branch points was determined using a blind protocol. The results are shown as the mean of three independent experiments ±s.e.m. (FIG. 7C).

[3] = tested on: BAE/APJ#2 cells (bovine aortic endothelial cells expressing mouse APJ); experiment: BAE/APJ#2 endothelial cell proliferation (BrdU incorporation); format: cell-based; details: 10 ng/ml, 24 hours, after 48 hours serum starvation
Description: SU1498 was included in proliferation cultures at a concentration of 10 ng/ml and results were assayed using BrdU incorporation. After growth factor incubation, BrdU was added to each well at a final concentration of 10 μM for 2 hours, cells were washed, and fixed for BrdU immunocytochemistry.
Cells were fixed in 100% ice cold methanol at 4° C. for 2 hours to overnight. Prior to staining, cells were air dried and rehydrated for 3 minutes with PBS buffer. DNA was denatured at 37° C. with 2 M HCl, and neutralized with 2 washes for 5 minutes in 0.1 M borate buffer (pH 8.5). […] FITC-labeled anti-BrdU antibody (5 μg/ml) in block was added for 1 hour at room temperature. Cells were counterstained with propidium iodide following several washes in PBS buffer. For each experiment, 4 random fields were photographed for determination of percentage BrdU labeling.

[4] = tested on: bEnd3 cells; details: apelin 10 ng/ml in bottom chamber; VEGF 50 ng/ml as comparison
Description: Cell migration assays were performed using the bEnd3 cells in Transwell cell culture migration chambers (FIG. 20). The cells were plated in serum free medium in the upper chamber of the migration chamber. […] The cells that migrated to the bottom chamber were visualized by DAPI stain of the nuclei of the cells (Panels A, B, and C).

[5] = tested on: lymphatic endothelial cells; experiment: In vivo lymphatic cell number assay, quail CAM (Prox1 staining); details: collagen disk with 50 ng apelin or 100 ng VEGF-C on CAM of 7 day quail embryos, 18 hours
Description: All experiments were carried out using chorioallantoic membranes (CAMs) of quail embryos. Quail embryos used for the lymphatic experiments were 7 days old. Collagen purified from rat tails (Bernanke and Markwald, 1982) was polymerized in 2 mm disks at a final concentration of approximately 1.6 mg/ml in standard phosphate buffered saline (PBS). The total volume of the collagen disk was approximately 10 μl. For experimental treatments, the collagen disks were supplemented with either 50 ng of apelin peptide or 100 ng of VEGF-C protein prior to polymerization at 37° C. for 30 minutes. The VEGF-C was a positive control for these experiments. (Recombinant Human VEGF-C (Cys156Ser), R&D Systems, cat # 752-vc). Apelin peptide was synthesized by Sigma-Genosys (>90% purity). […]
The samples were incubated with primary antibody (Prox1, Research Diagnostics, cat # RDI-102PA30, diluted to 2 μg/ml final concentration) for 4 hours at room temperature or overnight at 4° C. […] Both the lymphatic cell number as well as the number of lymphatic branches were determined.
Assays for lymphatic cell number were carried out in areas of the CAM that were close to the location of the collagen disk as described above. Since Prox1 specifically stains lymphatic endothelial cell nuclei, the number of cells in the lymphatic branches was counted directly. […]

[6] = tested on: SVEC cells (lymphatic endothelial cell line SVEC4-10); details: apelin 10 ng/ml, overnight serum starve, 8 hours of treatment
Description: Cell migration assays as described above were performed with SVEC cells. Apelin was provided at a concentration of 10 ng/ml, and VEGF-C was provided at a concentration of 100 ng/ml.

## Apelin-13
[1]
  VEGF expression in the vicinity of the bead: no upregulation of VEGF expression
[2]
  blood vessel formation: increased
  leakage of blood vessels: increased
[3]
  endothelial cell proliferation (BrdU labeling): promotes endothelial cell proliferation to a similar extent as VEGF
[4]
  endothelial cell migration (chemotaxis): acts as chemotactic agent for the endothelial cells to the same extent as VEGF
[5]
  lymphatic cell number (Prox1 positive nuclei): mitogenic factor for lymphatic endothelial cells
[6]
  lymphatic endothelial cell migration: chemotactic agent for lymphatic endothelial cells
